Laboratory results taken from patent US6440980B1, “Synergistic inhibition of viral replication by long-chain hydrocarbons and nucleoside analogs” (Avanir Pharmaceuticals, priority 1996, dated 2002).
Where two headings read alike, the source gives them in different places.

How the values were obtained:
[1] = system: HSV-2; assay: Cutaneous HSV-2 model in hairless guinea pigs, combination cream (Example 15); type: in vivo; conditions: 96 hours post-HSV-2-inoculation; cream two times daily; untreated mean 27 vesicles
[2] = system: HSV-1; assay: HSV-1 PFU production in Vero cell cultures; type: cell-based, HSV-1 (MacIntyre strain)
[3] = system: Varicella Zoster Virus (VZV); assay: VZV infectious center assay in MRC-5 cells; type: cell-based, human varicella zoster virus (Ellen strain); conditions: for EC50: Human alphaherpesvirus 3, MRC5, read-out: ACV Efficacy EC50 (μM), VZV; for EC90: Human alphaherpesvirus 3, MRC5, read-out: ACV Efficacy EC90 (μM), VZV
[4] = system: Cytomegalovirus (CMV); assay: CMV infectious center assay in MRC-5 cells; type: cell-based, human cytomegalovirus (Towne strain); conditions: for EC50: Human betaherpesvirus 5, MRC5, read-out: ACV Efficacy EC50 (μM), CMV; for EC90: Human betaherpesvirus 5, MRC5, read-out: ACV Efficacy EC90 (μM), CMV
[5] = system: vaccinia virus; assay: microbe, parasite or virus in culture; type: cell-based, vaccinia virus (WR strain); conditions: with or without n-docosanol
[6] = system: Vero cells
[7] = cited from earlier work
[8] = system: HSV-2; assay: Inhibition of HSV-2 plaque formation in Vero cells; conditions: for EC50: Human alphaherpesvirus 2, Vero
[9] = system: HSV-2; assay: Transmucosal suppository treatment of HSV-2 infection (Example 13); type: in vivo, human; conditions: 8 mM brassidyl alcohol suppositories
Procedure: Suppositories containing 8 mM brassidyl alcohol in a nonionic detergent suspension, prepared essentially as in Examples 1 and 5, are formulated by adding anhydrous dextrose (300-400 mg/suppository), vegetable starch (300-400 mg/suppository) and magnesium stearate (5-10 mg/suppository) to produce a mixture that is compressed into suppositories (1-10 g per suppository) for vaginal insertion.
Fifteen HSV-2 infected women with past histories of vaginal and/or perivaginal herpes lesions are provided with the suppositories and instructed to use one to four suppositories per day when herpes lesions or discomfort associated with herpes lesions are detected. The women are instructed to record their observations about the duration of the active infection, the severity of the lesions (erythema, papule, vesicle, edema or scab phases), the relative numbers of lesions detected to past occurrences of active infection, and the subjective degrees of pain or discomfort associated with the active infection episode. The women are instructed to use the suppositories as soon as active infection or symptoms of active infection are detected. The women have a past mean of 12 days duration for lesions that develop into vesicles if untreated.

[10] = system: HSV-1; assay: Inhibition of HSV-1 plaque formation in Vero cells (brassidyl alcohol, TETRONIC-908 suspension); conditions: Human alphaherpesvirus 1, Vero, read-out: Percent Inhibition of Plaque Formation
[11] = system: all cell lines tested; assay: Cytotoxicity in mammalian cell cultures; conditions: surfactant suspensions
Text: Three assays were used to quantitate the effects of aliphatic alcohols on cell survival and proliferation: 1) counting cells with a hemocytometer and determining the number of cells that exclude trypan blue; 2) measuring the incorporation of ^3H-thymidine into cellular DNA by adding ^3H-thymidine (from New England Nuclear) to the culture medium, lysing the cells with water and harvesting the DNA onto filter paper; and 3) measuring total cellular protein using a sulforhodamine assay adapted for use in 96-well microtiter plates (Skehan et al., J. Natl. Cancer Inst. […] All of these methods are well known cell viability and cytotoxicity assays.

[12] = system: EBV; assay: Systemic treatment of EBV infection, infectious mononucleosis (Example 14); type: in vivo, human; conditions: 10 mM n-hexacosanol suspension injected
Procedure: Ten young adults (age 14-19 yr) diagnosed with infectious mononucleosis (sore throat, fever, malaise, generalized lymphadenopathy, atypical mononucleosis T-lymphocytes in peripheral blood, a total white cell count of 12,000-18,000 in the blood) are treated systemically with a sterile aqueous suspension of a nonionic detergent surfactant containing 10 mM n-hexacosanol, prepared essentially as in Example 1. The suspension is injected (intramuscular or intravenous) in dosages of 0.1 mg/kg to 0.02 gm/kg of the aliphatic alcohol administered by a physician under clinical conditions. The symptoms of the individuals are then monitored daily for one week and weekly for three months for indications of infectious mononucleosis. All of the individuals test EBV-positive at the end of the study period as determined by detection of anti-EBV antibodies in their serum using standard immunoassays.

[13] = system: HSV-2; assay: Topical treatment of HSV-2 in guinea pig model, number of vesicles (Example 9); type: in vivo, hairless guinea pigs; conditions: mean; for Number of Vesicles Day 2: 48 hr post-inoculation; for Number of Vesicles Day 3: 72 hr post-inoculation; for Number of Vesicles Day 4: 96 hr post-inoculation
[14] = male, hairless, guinea pig, in vivo, 2 day
[15] = system: Vero cells; assay: Cytotoxicity to Vero cells (monolayer integrity, trypan blue exclusion)

SMILES: Nc1nc2c(ncn2COCCO)c(=O)[nH]1 [ACV, 9-(2-hydroxy)-ethoxymethyl-guanine]
- reduction of mean vesicle numbers [1]: 50%
- lowering of the ACV EC90 ([2]; 3.3 mM n-docosanol): 17 fold
- reduction of the ACV EC90 ([2]; 10 mM n-docosanol): 40 fold
- reduction of EC90 by n-docosanol ([2]; 15 mM n-docosanol): 21 fold
- EC90 ([2]; 15 mM n-docosanol, 500 PFU/culture, three days, read-out: EC90 for inhibition of HSV-1 PFU production in the presence of n-docosanol): 0.9 µM
- EC90 ([2]; Human alphaherpesvirus 1, Vero, 72 h, control cultures without n-docosanol, 500 PFU/culture, three days, read-out: EC90 for inhibition of HSV-1 PFU production, drug used alone): 19 µM
- EC90 ([2]; Human alphaherpesvirus 1, Vero, read-out: ACV EC90 for inhibition of HSV-1 production, 30 mM n-docosanol): < 0.1 µM
- EC90 ([2]; Human alphaherpesvirus 1, Vero, read-out: ACV EC90 for inhibition of HSV-1 production, medium only or medium plus PLURONIC F-68, 500 PFU per culture, 72 hours): 10 µM
- EC50 ([3]; Medium Only): 3 µM
- EC50 ([3]; with Pluronic F-68): 3 µM
- EC50 ([3]; with n-Docosanol, 3.3 mM): 1 µM
- EC50 ([3]; with n-Docosanol, 10 mM): 0.6 µM
- EC50 ([3]; with n-Docosanol, 30 mM): 0.3 µM
- EC90 ([3]; Medium Only): 10 µM
- EC90 ([3]; with Pluronic F-68): 10 µM
- EC90 ([3]; with n-Docosanol, 3.3 mM): 6 µM
- EC90 ([3]; with n-Docosanol, 10 mM): 4 µM
- EC90 ([3]; with n-Docosanol, 30 mM): 2 µM
- reduction of ACV EC50's and EC90's ([4]; CMV, n-docosanol concentrations of 10-30 mM): 90%
- EC50 ([4]; Medium Only): 30 µM
- EC50 ([4]; with Pluronic F-68): 30 µM
- EC50 ([4]; with n-Docosanol, 3.3 mM): 8 µM
- EC50 ([4]; with n-Docosanol, 10 mM): 2 µM
- EC50 ([4]; with n-Docosanol, 30 mM): 2 µM
- EC90 ([4]; Medium Only): 250 µM
- EC90 ([4]; with Pluronic F-68): 250 µM
- EC90 ([4]; with n-Docosanol, 3.3 mM): 35 µM
- EC90 ([4]; with n-Docosanol, 10 mM): 25 µM
- EC90 ([4]; with n-Docosanol, 30 mM): 6 µM
- sensitivity of vaccinia virus to ACV (in words) [5]: insensitive
- cellular toxicity, such as cytoplasmic vacuoles [6]: not observed
- steady state acyclovir plasma concentration ([7]; acyclovir 5 mg/kg by 1-hour infusions every 8 hours): approximately 10 μg/ml
- maximum average acyclovir plasma concentration ([7]; oral acyclovir 500 mg 5 times a day): approximately 0.7 μg/ml
- enhancement of ACV activity ([8]; 3 mM n-docosanol): 25 fold
- EC50 ([8]; 44 h, read-out: ACV 50% effective concentration (EC50), plaque formation, medium alone, 50 PFU HSV-2, scored 44 hours): 0.005 mM
- EC50 ([8]; read-out: ACV EC50, plaque formation): 0.0002 mM

SMILES: CCCCCCCC/C=C/CCCCCCCCCCCCO [brassidyl alcohol, trans-13-docosen-1-ol]
- mean duration of the HSV-2 active infection, five women [9]: 3 to 4 days
- inhibition at 1000 µM [10]: 27%
- inhibition at 2000 µM [10]: 35%
- inhibition at 4000 µM [10]: 44%
- inhibition at 8000 µM [10]: 48%

SMILES: CCCCCCCCCCCCCCCCCCCCCCCCCCO [n-hexacosanol]
- cytotoxicity of the suspensions (in words) [11]: same minimal level of cytotoxicity
- time to decrease in atypical mononucleosis T-lymphocytes in peripheral blood [12]: four
- EC50 ([8]; read-out: 50% Inhibition Concentration (mM)): 8.4 mM

SMILES: CCCCCCCCCCCCCCCCCC(=O)O [stearic acid]
- Number of Vesicles Day 2 ([13]; 10% w/w cream topically 3X/day from 24 hr post-inoculation): 49
- Number of Vesicles Day 3 ([13]; 10% w/w cream topically 3X/day): 17
- Number of Vesicles Day 4 ([13]; 10% w/w cream topically 3X/day): 11
- Number of Vesicles Day 2 ([13]; 10% w/w cream topically 5X/day): 49
- Number of Vesicles Day 3 ([13]; 10% w/w cream topically 5X/day): 13
- Number of Vesicles Day 4 ([13]; 10% w/w cream topically 5X/day): 5
- Irritation Score Day 2 [14]: 0
- inhibition of HSV-2 plaque formation relative to infected control cell cultures ([8]; 11 μM and 22 μM in TETRONIC 908, 3.5 μM in ethanol): less than 10%
- cytotoxicity by microscopic examination ([15]; 11 μM and 22 μM suspensions in TETRONIC 908 and 3.5 μM solution in ethanol): No apparent toxicity
- cytotoxicity by microscopic examination ([15]; 44 μM TETRONIC 908 suspension and 35 μM ethanol solution): Moderate toxicity
- cytotoxicity by microscopic examination ([15]; suspensions and solutions of 88 μM to 350 μM): toxic
